Laboratory results: patent publication US10959998B2, “Pharmaceutical use and pharmaceutical composition of pyrroloquinoline quinine, its derivatives and/or its salts” (priority 2015, dated 2021)

Tests used:
[1] = tested on: ectopic endometrial stromal cells; assay: Cell cycle by propidium iodide flow cytometry; assay type: cell-based, human; conditions: 24 h, p<0.01
Description: (§1) Endometrial tissues were surgically isolated from patients with chocolate cyst of ovary, washed 2 to 3 times with PBS supplemented with antibiotics in ultra-clean cabinet, and cut into tiny pieces (about 1 mm^3 in size) with aseptic scissors. The tissues were digested with 1 mg/ml collagenase type I for 30 to 90 min at 37° C., and continually digested with Dnase I (final concentration of 15 U/ml, 2% Dnase I) for another 30 min. The digested tissues were filtered thorough 60-mesh stainless steel filter cell strainer to remove the undigested cell tissues, and were further filtered with 200- or 400-mesh strainer. The filtered solution was centrifuged at 1000 rpm for 5 min. After removing the supernatants, the cells were washed once with culture medium compounded by DMEM/F12 (1:1 v/v) and 10% fetal bovine serum, re-suspended in the culture medium, and seeded in 6-well tissue culture plate or T25 tissue culture flasks with an appropriate density. After 24 hours incubation, the culture medium was changed to remove the non-adherent blood cells, endothelial cells, macrophages and other miscellaneous cells. […] Vimentin which expresses specifically in stromal cells was detected by immuno-fluorescence to measure the cell purity. […] Cell cycle was determined with flow cytometry. […] Cell apotosis was determined by flow cytometry.

[2] = tested on: hydroxyl radical (.OH) in endometrial stromal cells; assay: Determination of hydroxyl radical (.OH) content; assay type: cell-based, human; conditions: 18 h
Description: Superoxide anion (O2.^−) assay kit was purchased from Nanjing Jiancheng Bioengineering Insitute; Hydroxyl free radical assay kit was purchased from Shanghai Xinyu Biological Technology Co., Ltd., Hydrogen Peroxide Assay Kit was purchased from Beyotime Biotechnology Research Institute. The cells were seeded in 6-well plate at 8×10^5 cells/well, and incubated for 24 h after the cells adhered to the plate. Three different concentrations of PQQ (30 nm, 300 nm and 3 μm) were added to the cultures respectively. The cells were incubated for additional 18 h. At the end of the treatment, the cultured cells were collected. 50 μL samples were added to each cell, followed by addition of 50 μL of antibody working solution. The sample was shaken to achieve a uniform mixture, and reacted at 37° C. for 30 min. The plates were then washed for four to five times. 100 μL of enzyme marker was added to each well. The resulting mixture was allowed to react for 20 min at 37° C. Coloration method: 50 μL of buffer liquid and 50 μL of substrate solution were added to each well in sequence. The mixture solution was gently shaken to achieve a uniform mixing, and coloured for 10 min in the dark at 37° C. […] The optical density at wavelength 560 nm was measured with microplate reader (Read the data in 20 min).

[3] = tested on: endometrial stromal cells; assay: Apoptosis by Annexin V-FITC/PI flow cytometry; assay type: cell-based, human; conditions: regardless of dose, 24 h
Description: as §1

[4] = tested on: endometrial stromal cells; assay: Scratch test (scratch healing, cell migration); assay type: cell-based, human; conditions: for scratch healing: P<0.05
Description: Before the cells were plated, horizontal lines were scratched on the back of 24-well plate using a blade with the guide of a ruler. For each well, three evenly distributed lines which horizontally crossed the well were scratched. Two days after transfection, the cell fusion rate reached 90%. The wound were created by scratching on the cell layer with micropipette tip in a direction perpendicular to the lines on the back of the plate with the aid of ruler. During the operation, the micropipette tip should be kept perpendicular to the plate, and not tilt to one side. The cells were washed for three times with PBS to remove the exfoliated cells after being scratched, and 1640 culture medium supplemented with 2% FBS was added to the cells. The cells were cultured in an incubator at 37° C., in an air atmosphere containing 5% CO2. The cells were photographed in the same field of view at each indicated time point.

[5] = tested on: endometrial stromal cells; assay: Transwell/matrigel invasion assay; assay type: cell-based, human; conditions: 48 h
Description: 500 μL culture medium containing 10% FBS was added into each wells in a 24-well plate. Transwell chambers were treated with 0.3 mg/ml FN diluted by serum free 1640 culture medium (BD company). The cells were seeded (5×10^4 cells/chamber) in the transwell up-chamber, in which 100 μL media were kept finally. The cells were cultured in an incubator at 37° C. in an air atmosphere containing 5% CO2 for the specified time. The chambers were taken out, stained with 0.1% crystal violet, and were photographed. Crystal violet on the membrane was dissolved with 300 μL of 33% Glacial acetic acid. The optical absorption was measured at wavelength 573 nm. On the ice, 100 μL matrigel was taken in with pre-chilled micropipette, transferred into 300 ul pre-chilled serum free medium. The mixture solution was thoroughly mixed to achieve uniform. 25 ul of the previous diluted matrigel was put into transwell up-chamber, covering the whole carbon ester membrane. The transwell was incubated at 37° C., 30 min for Matrigel gelling. The rest treatment was the same as that in Transwell assay.

[6] = cited from earlier work
[7] = tested on: ectopic endometrial foci; assay: Endometriosis rat model, weight of transplanted foci; assay type: in vivo, SD rats

With `O=C(O)c1cc(C(=O)O)c2c(n1)C(=O)C(=O)c1cc(C(=O)O)[nH]c1-2` [PQQ, pyrroloquinoline quinone] the cell cycle ([1]; PQQ 3 um) was “arrest the cell in G0/G1 phase”, the cell cycle ([1]; PQQ 300 nm) was “arrest the cell in G0/G1 phase” and the “relative content of hydroxyl radical (.OH)” value ([2]; PQQ 300 nM) was “significantly declined”. For the same compound, the “relative content of hydroxyl radical (.OH)” value ([2]; PQQ 3 uM) was “significantly declined”, the “apoptosis or necrosis compared to the control” value [3] was “No endometrial stromal cells apoptosis or necrosis” and the “migration of endometrial cells (scratch healing)” value ([4]; PQQ 30 nM, P>0.05) was “partially restrain the migration of the endometrial cells”. For the same compound, the scratch healing ([4]; PQQ 300 nM) was “significantly inhibit scratch healing”, the “scratch coverage rate lower than in the control group” value ([4]; PQQ 3 μM, 72 h) was 42% and the scratch healing ([4]; PQQ 3 μM) was “significantly inhibit scratch healing”. For the same compound, the “inhibitory effect on cell invasion compared to the control group” value ([5]; 300 nM PQQ, statistically meaningful) was “definite inhibitory effect”, the “reduction of invasion ability of endometrial stromal cells” value ([5]; 3 μM PQQ) was 35% and the “inhibitory effect on cell invasion compared to the control group” value ([5]; PQQ) was “not obvious”. For the same compound, the adverse reactions ([6]; mice fed 100 mg/kg body weight/day for 14 consecutive days) was “did not show any adverse reactions”, the half lethal dose ([6]; mice) was 1000-2000 mg/kg body weight/day and the “weight of ectopic endometrial foci compared with the control group” value ([7]; Example 5, rats, after 4 weeks treatment) was “evidently lower than that from the control group”. For the same compound, the “weight of cysts after treatment (mg) Mean ± SD” value ([7]; Example 5, rats, water feeding 4 week, PQQ 1 mg/kg, NAC 10 mg/kg, Resveratro 10 mg/kg, n=9) was 71.2 ± 23.2 mg, the “weight of ectopic cys after treatment (mg) Mean ± SD” value ([7]; Example 7, rats, 4 weeks in drinking water, PQQ (disodium salt) 1 mg/kg/day, NAC 10 mg/kg/day, P+N (H) 1+10, P+N (L) 0.2+5 mg/kg/day, n=12) was 69.5 ± 12.7 mg and the “weight of ectopic cyst compared with model control group” value ([7]; Example 7, rats, after 4 weeks treatment, PQQ as disodium salt) was “evidently lower than that in the model control group”.
